A short description of the data set: logP determination by HPLC on a reversed-phase column (C 18), EEC Directive 79/831 Annex V.A8. It counts as physicochemical. The method, then:
The stated logP values were determined in accordance with EEC Directive 79/831 Annex V.A8 by HPLC (high performance liquid chromatography) on a reversed-phase column (C 18). Temperature: 43° C.

The mark [1] stands for this setting: method marker [b], isomer A / isomer B / isomer mixture as noted in the cell.
Setting [2] is: method marker [a] (footnote not shown), isomer A / isomer B / isomer mixture as noted in the cell.
Setting [3] is: [b] LC-MS, acidic range, pH 2.7, 0.1% aqueous formic acid and acetonitrile.
Where [4] appears, read: [c] LC-MS, neutral range, pH 7.8, 0.001 molar aqueous ammonium bicarbonate solution and acetonitrile.

With `C(=NOCCON=Cc1ccccn1)c1ccccn1` [compound 665], under “method marked [b] in Table 1”, the logP was 1.68^[b].

As to `CC(=NOCCCCON=C(C)c1cccc(C)n1)c1cccc(C(F)(F)F)c1` [Compound 375], the logP (value marked [b]) is 5.54^[b].

Consider `N/C(=N\OC/C=C/CO/N=C(\N)c1nc(C2CC2)cc(C2CC2)n1)c1nc(C2CC2)cc(C2CC2)n1` [compound 722], for which the logP (method marked [b] in Table 1) was 3.13^[b].

As to `CC(=NOCC1(CON=C(C)c2cc(C)cc(C)n2)CC(c2ccc(Cl)cc2)=NO1)c1cc(C)cc(C)n1` (stereo not drawn) [compound 644], the logP (method marked [b] in Table 1) is 3.28^[b].

For the compound `CCCC(=NOCC1(CON=C(CCC)c2cccc(C)n2)CC(CC(C)C)=NO1)c1cccc(C)n1` (stereo not drawn) [compound 619], where the note is “method marked [b] in Table 1”, the logP is 6.22^[b].

As for `CC(=NOCC(C)CON=C(c1cccc(C)n1)C1CC1)c1cccc(C)n1` (stereo not drawn) [Compound 429], the logP (value marked [b]) is 3.61^[b].

In the case of `CC(=NOC/C=C/CON=C(C)c1cccc(C)n1)c1cccc(C)n1` [Compound 777], the logP (value marked [b]) was 2.89^[b].

Regarding `N/C(=N\OC/C=C/CO/N=C(\N)c1ncc(F)cc1F)c1ncc(F)cc1F` [compound 723], the logP (method marked [b] in Table 1) was 2.42^[b].

Regarding `Cc1cc(C)nc(/C(N)=N/OCO/N=C(\N)c2cc(C)cc(C)n2)c1` [compound 58], the logP under setting [1] is 1.87^[b].

On to `C=C(CON=C(C#N)c1cccc(C)n1)CON=C(C#N)c1cccc(C)n1` [Compound 784], for which the logP (value marked [a]) is 3.84^[a].

As to `C=C(CON=C(C)c1cccc(C)n1)CON=C(C)c1cccc(C(C)C)n1` [compound 479], for the setting “value marked [b]”, the logP was 5.78^[b].

As to `CCc1cc(-c2ccccc2)cc(C(C)=NOCC(C)CON=C(C)c2cc(-c3ccccc3)cc(CC)n2)n1` (stereo not drawn) [compound 692], where the note is “method marked [a] in Table 1”, the logP was 7.36^[a].

With `C=C(CON=C(C)c1cccc(C)n1)CON=C(C)c1cccn1C` [compound 197], the logP under setting [1] was 4.37^[b].

For the compound `CC(=NOCC(C)(C)CO/N=C(\C)c1cccc(C)n1)c1cc(C)cc(C)n1` [(1E/Z)-1-(4,6-dimethylpyridin-2-yl)ethanone O-[2,2-dimethyl-3-({[(1E)-1-(6-methylpyridin-2-yl)ethylidene]amino}oxy)propyl]oxime], the chromatographic logP (reversed-phase HPLC column (C 18), HCO2H, HPLC reversed-phase column (C 18), 43° C., read-out: logP (HCO2H)) worked out at 3.33.

With `CC(=NOCC1(CON=C(C)c2ccc(C)c(C)n2)CC1)c1cc(C)cc(C)n1` [Compound 695], the logP is 2.61^[b] (method marked [b] in Table 1) and 6.02^[c] (method marked [c] in Table 1).

On to `CCC(CC)(C(=O)ON=C(C)c1ccc(C)c(C)n1)C(=O)ON=C(C)c1ccc(C)c(C)n1` [compound 675], for which, where the note is “method marked [b] in Table 1”, the logP is 5.06^[b].

Turning to `C=C(CON=C(C)c1cccc(C)n1)CON=C(C)c1cccc(Cc2ccccc2)n1` [Compound 350], the logP (value marked [b]) was 5.71^[b].

`CC1=NOC(CO/N=C(\C)c2cc(C)cc(C)n2)(CO/N=C(\C)c2cc(C)cc(C)n2)C1` [Compound 637]: for the setting “method marked [b] in Table 1”, the logP was 1.60^[b].

With `CC(=NOC1CCC(ON=C(C)c2cccc(C)n2)C1)c1cccc(C)n1` (mixture of isomers) [compound 797], the logP (value marked [a]) was 4.60^[a].

Turning to `C=C(CON=Cc1cc(C(F)(F)F)cc(C)n1)CON=C(C)c1cccc(C)n1` (mixture of isomers) [Compound 671], the logP (method marked [b] in Table 1) was 4.61^[b].

As for `CCCC(=NOCC(C)CON=C(C)c1cccc(C)n1)c1ncccc1C` (single isomer, unassigned) [compound 549], where the note is “method marked [b] in Table 1”, the logP is 4.68^[b] (isomer B).

For the compound `CC(=NOCC1(CON=C(C)c2ccc(C)c(C)n2)CC(c2ccc(Cl)cc2)=NO1)c1ccc(C)c(C)n1` (stereo not drawn) [compound 633], the logP (method marked [b] in Table 1) was 4.51^[b].

In the case of `C=CCCC(=NOCCCON=C(CCC=C)c1ncccc1C)c1ncccc1C` [compound 129], the logP under setting [2] was 4.59^[a].

`Cc1cc(C)nc(/C(N)=N/OCc2cccc(CO/N=C(\N)c3cc(C)cc(C)n3)c2)c1` [compound 726]: for the setting “method marked [b] in Table 1”, the logP is 3.63^[b].

As for `C=Cc1cccc(C(C)=NOCC(C)CON=C(C)c2cccc(C=C)n2)n1` (stereo not drawn) [compound 685], for the setting “method marked [b] in Table 1”, the logP was 6.6^[b].

As to `C=C(CON=C(C#N)c1cccc(C)n1)CON=C(C#N)c1ccc(C)c(C)n1` [compound 828], the logP (value marked [a]) is 4.20^[a].

In the case of `CC(=NOCC(C)CON=C(C)c1cc(N2CCCC2)cc(C)n1)c1cc(N2CCCC2)cc(C)n1` (stereo not drawn) [Compound 847], the logP (value marked [a]) was 1.40^[a] and the logP (value marked [c]) was 5.93^[c].

`CC(=NOCC(C)CON=C(C)c1cc(C(F)(F)F)cc(C)n1)c1cc(C(F)(F)F)cc(C)n1` (stereo not drawn) [compound 869]: the logP (value marked [a]) is 7.36^[a], the logP (value marked [b]) was 7.36^[b] and the logP (value marked [c]) was 5.53^[c].

Turning to `CC(=NOCC1(CON=C(C)c2cc(C)cc(C)n2)CC(c2cccc(Cl)c2)=NO1)c1cc(C)cc(C)n1` (stereo not drawn) [compound 646], the logP (method marked [b] in Table 1) is 3.28^[b].

`CC(=NOCC(C)CON=C(C)c1cccc(C)[n+]1[O-])c1cccc(C)[n+]1[O-]` (stereo not drawn) [compound 314]: the logP (value marked [b]) was 1.69^[b].

As to `C/C(=N\OCC(C)CON)c1ccc(C)c(C)n1` (racemic) [XII-7], the logP ([a] acidic range, pH 2.3, 0.1% aqueous phosphoric acid and acetonitrile) was 0.37^[a]; the logP under setting [3] is 0.37^[b]; the logP under setting [4] is 2.49^[c].

Consider `CCc1cccc(C(C)=NOCC(C)CON=C(C)c2cccc(CC)n2)n1` (stereo not drawn) [Compound 179], for which the logP under setting [2] is 6.21^[a].

Take `CC(=NOCC1(CON=C(C)c2cc(C)cc(C)n2)CC(c2ccccc2)=NO1)c1cc(C)cc(C)n1` (stereo not drawn) [compound 643]: the logP (method marked [b] in Table 1) was 2.55^[b].

As to `CC(=NOCCCCCCON=C(c1cccc(C)n1)C(C)C)c1cccc(C)n1` (single isomer, unassigned) [compound 526], the logP (value marked [b]) was 4.91^b](isomer A).

`C=C(CON=C(C)c1cccc(C)n1)CON=C(C)c1ncc(Cl)cc1Cl` [compound 194]: the logP under setting [1] is recorded as 4.72^b].

As for `CC(=NOCc1cccc(CON=C(C)c2cccc(C)n2)n1)c1cccc(C)n1` [Compound 740], the logP runs as follows: (method marked [b] in Table 1) 2.49^[b]; (method marked [c] in Table 1) 4.33^[c].

For the compound `N/C(=N\OCc1ccc(CO/N=C(\N)c2ncc(F)cc2F)cc1)c1ncc(F)cc1F` [compound 719], under “method marked [b] in Table 1”, the logP is 2.96^[b].

For the compound `C=C(CON=C(C)c1cccc(C)n1)CON=C(C)c1ccc(Cl)s1` (single isomer, unassigned) [compound 473], the logP (value marked [b]) was 4.91^[b] (isomer B).

On to `C/C(=N\OCC(C)CON)c1cccc(-c2cccc(C)n2)n1` (racemic) [XII-5], for which the logP was 1.35^[b] under setting [3] and 3.36^[c] under setting [4].

On to `CC[Si](CC)(CON=C(C)c1cccc(C)n1)CON=C(C)c1cccc(C)n1` [Compound 782], for which the logP (value marked [a]) is 6.65^[a], the logP (value marked [b]) was 6.65^[b] and the logP (value marked [c]) is 7.01^[c].

With `CC(=NOCC(C)CON=C(C)c1cccc(C(C)C)n1)c1cccc(C)n1` (stereo not drawn) [Compound 504], the logP (value marked [b]) is given as 6.29^b].

On to `CCCc1cccc(C(C)=NOCC(C)CON=C(C)c2cccc(CCC)n2)n1` (stereo not drawn) [Compound 175], for which the logP under setting [2] is 7.36^[a].

For the compound `CC(=NOCC(C)(C)CON=C(c1ccccc1)c1cccc(C)n1)c1cccc(C)n1` (mixture of isomers) [Compound 880], the logP by setting is: (value marked [b]) 4.72^[b]; (value marked [c]) 5.37^[c].

Turning to `CC(=NOCCCON=C(C)c1cccc(Br)n1)c1cccc(Br)n1` [compound 80], the logP under setting [2] was 5.99^[a].

With `CCC(CON=C(C)c1ccc(C)c(C)n1)CON=C(C)c1ccc(C)c(C)n1` (stereo not drawn) [Compound 678], the logP reads like this: (method marked [b] in Table 1) 3.89^[b]; (method marked [c] in Table 1) 6.79^[c].
